Data: ChEMBL document CHEMBL3046178, “Quantitative Structure-Activity Relationships of Larvicidal N-[5-(Substituted phenyl)-1, 3, 4-thiadiazol-2-yl]-benzamides in the Inhibition of N-Acetylglucosamine Incorporation into a Cultured Integument System” (J Pestic Sci, 1996)

Key:
[1] = tested on: Chilo suppressalis; experiment: Insecticidal activity against Chilo suppressalis (rice stem borer) third-instar larvae assessed as mortality after 5 days; format: functional
[2] = tested on: Chilo suppressalis; experiment: Inhibition of chitin synthesis in 20-hydroxyecdysone-stimulated Chilo suppressalis (rice stem borer) larval integument assessed as inhibition of N-acetyl-{1-14C]-glucosamine at pI50 after 72 hr by liquid scintillation counting; format: functional
[3] = tested on: Chilo suppressalis; experiment: Insecticidal activity against Chilo suppressalis (rice stem borer) third-instar larvae assessed as mortality at pI50 after 5 days; format: functional
[4] = tested on: Chilo suppressalis; experiment: Insecticidal activity against Chilo suppressalis (rice stem borer) third-instar larvae assessed as mortality after 5 days in presence of piperonyl butoxide; format: functional
[5] = 1-octanol-water partition co-efficient, log P of the compound; format: physicochemical
[6] = tested on: Chilo suppressalis; experiment: Insecticidal activity against Chilo suppressalis (rice stem borer) third-instar larvae assessed as mortality at pI50 after 5 days in presence of piperonyl butoxide; format: functional; set-up: concentration or dose not given beside the values

O=C(Nc1nnc(-c2ccc(Cl)cc2)s1)c1ccccc1Br
pLD50 [1]: <4.6 | inhibition (INH) [2]: 32% | mortality [3]: 0%

COc1cccc(OC)c1C(=O)Nc1nnc(-c2ccc(Br)cc2)s1
pLD50 [4]: 5.57 | logP [5]: 3.96

O=C(Nc1nnc(-c2ccc(Cl)cc2)s1)c1ccccc1
pLD50 [1]: <5.6 | inhibition (INH) [2]: 10% | mortality [3]: 0%

O=C(Nc1nnc(-c2ccc(Cl)cc2)s1)c1ccccc1I
pLD50 [1]: <4.6 | inhibition (INH) [2]: 17% | mortality [3]: 5%

Cc1cccc(C)c1C(=O)Nc1nnc(-c2ccc(Cl)cc2)s1
pLD50 [1]: 5.48

CCOc1ccccc1C(=O)Nc1nnc(-c2ccc(Cl)cc2)s1
pLD50 [1]: <5.6 | inhibition (INH) [2]: 23% | mortality [3]: 10%

COc1cccc(OC)c1C(=O)Nc1nnc(-c2ccc(C)cc2)s1
pLD50 [4]: 5 | logP [5]: 3.85

O=C(Nc1nnc(-c2ccc(Cl)cc2)s1)c1ccccc1C(F)(F)F
pLD50 [1]: <4.6 | inhibition (INH) [2]: 7% | mortality [3]: 0%

COc1ccc(-c2nnc(NC(=O)c3c(OC)cccc3OC)s2)cc1
pLD50 [4]: <5 | logP [5]: 3.56 | mortality [6]: 0%

COc1cccc(OC)c1C(=O)Nc1nnc(-c2ccc(F)cc2)s1
pLD50 [4]: <5 | logP [5]: 3.5 | mortality [6]: 14%

COc1cccc(OC)c1C(=O)Nc1nnc(-c2ccc([N+](=O)[O-])cc2)s1
pLD50 [4]: <5 | logP [5]: 2.54 | mortality [6]: 0%

O=C(Nc1nnc(-c2ccc(Cl)cc2)s1)c1ccccc1Cl
pLD50 [1]: <4.6 | inhibition (INH) [2]: 37% | mortality [3]: 41%

O=C(Nc1nnc(-c2ccc(Cl)cc2)s1)c1c(Cl)cccc1Cl
pLD50 [1]: <5 | mortality [3]: 5%

CCOc1ccc(-c2nnc(NC(=O)c3c(OC)cccc3OC)s2)cc1
pLD50 [4]: <5 | logP [5]: 3.75 | mortality [6]: 6%

COc1cccc(OC)c1C(=O)Nc1nnc(-c2ccc(Cl)cc2)s1
pLD50 [1]: 5.96 | pLD50 [4]: <5.96 | logP [5]: 3.96

O=C(Nc1nnc(-c2ccc(Cl)cc2)s1)c1ccccc1F
pLD50 [1]: <4.6 | mortality [3]: 0%

O=C(NC(=O)c1c(F)cccc1F)Nc1ccc(Cl)cc1 [DIFLUBENZURON]
pLD50 [4]: 6.64

COc1ccccc1C(=O)Nc1nnc(-c2ccc(Cl)cc2)s1
pLD50 [1]: 5.96

COc1cccc(OC)c1C(=O)Nc1nnc(-c2ccccc2)s1
pLD50 [4]: <5 | logP [5]: 3.5 | mortality [6]: 0%

CCN(CC)c1ccccc1C(=O)Nc1nnc(-c2ccc(Cl)cc2)s1
pLD50 [1]: <5 | inhibition (INH) [2]: 8% | mortality [3]: 0%

Cc1ccccc1C(=O)Nc1nnc(-c2ccc(Cl)cc2)s1
pLD50 [1]: <4.6 | mortality [3]: 0%

O=C(Nc1nnc(-c2ccc(Cl)cc2)s1)c1c(F)cccc1F
pLD50 [1]: <4.6 | inhibition (INH) [2]: 42% | mortality [3]: 0%

COc1cccc(OC)c1C(=O)Nc1nnc(-c2ccc(C#N)cc2)s1
logP [5]: 3.14

O=C(Nc1nnc(-c2ccc(Cl)cc2)s1)c1ccccc1[N+](=O)[O-]
pLD50 [1]: <4.6 | inhibition (INH) [2]: 0% | mortality [3]: 0%
